Assay results from US10022357B2, “Amyloid precursor protein MRNA blockers for treating Down syndrome and Alzheimer's disease” (THE GENERAL HOSPITAL CORPORATION, priority 2013, dated 2018).
Entries after “also recorded” stand apart in the source; their conditions may differ. Where two headings read alike, the source gives them in different places.

Tests used:
APP 5′UTR = assay type: cell-based, human
Experimental: The LDDN library had already yielded small molecules that inhibit mesangial cell proliferation, following three-dimensional pharmacophore modeling and screening. A second Molecular Libraries Screening Centers Network HTS was conducted at the Columbia University Genome Center to generate hits as listed on PUBCHEM (AID: 1285), from which the dose-response assays identified 50 lead APP 5′UTR-directed luciferase reporter inhibitors. […] These were directly measured and found not to inhibit luciferase enzyme activity. […] These thirteen leads were tricyclic aromatic compounds that included two major classes of hits: compounds with a benzimidazole backbone, i.e. APP blockers 2, −7, and −9 (JTR-009) and compounds with a benzothiazole backbone, i.e. APP blockers −8 and −13. The compounds with a benzothiazole backbone were also identified to be similar to PFTα, another benzothiazole, and P53 inhibitor, by showing protection against oxidative injuries in synaptosomes from wild-type mice and preserving presynaptic terminals in cultured hippocampal neurons exposed to etoposide).
APP 5′UTR-Luciferase inhibitor compounds obtained from the preliminary HTS of pIRES-APP-5′UTR transfectants were picked, and the dose-response assays were conducted at 0.1, 1.0, and 5.0 μM (based on the exact molecular weights of the compounds). […] Each hit was added in 5 wells, and this was repeated twice on 2 different days. There was a positive control and negative control column of cells as previously described.
To identify APP 5′UTR-specific translation blockers from LDDN Harvard (see ref [21]) and from the Columbia University Genome center, the inventors then counter-screened against the PrP 5′UTR and shortlisted thirteen potent inhibitors to be further characterized. In FIG. 1D, the listed constructs were employed to conduct these transfection based assays to ensure that the 13 APP specific leads were not also PrP inhibitors. Table 1 lists the IC50 of each of these inhibitors with respect to their dose-responsive capacity to reduce APP 5′UTR-driven luciferase expression relative to their IC50 values against PrP 5′UTR expression.

APP mRNA = assay type: cell-based, human
Experimental: (§1) qRT-PCR was conducted to measure the capacity of JTR-009 to change steady state levels of […] levels, as was previously described (see Ref [6]). Desferrioxamine treatment was used for a positive control to assess changes to the steady state levels of both APP mRNA and transferrin receptor mRNAs. Primers for β-actin were employed as a control for an mRNA previously shown to be unchanged by desferrioxamine and other inducers. Experiments were carried out on the ABI Prism 7000 sequence detection system (Applied Biosystems). […] The primers to β-actin, TfR1 were designed and ordered from Invitrogen. The APP primer set was purchased from Qiagen and has been benchmarked on several reports for accurate measurement of APP mRNA levels.

APP [1] = system: APP
Experimental: After cells were exposed to increasing concentrations of the compounds as outlined in each figure legend, cytoplasmic protein lysates were prepared by homogenizing the cells in midRIPA buffer (25 mM Tris pH 7.4, 1% NP40, 0.5% sodium deoxycholate, 15 mM NaCl, protease inhibitors, RNase inhibitor and 10 μM DTT). Western blotting for APP was performed using the N-terminal 22C11 antibody (Millipore, Inc) and the A8717 C-terminal specific APP antibody (Sigma, inc), while αsyn was detected using mouse monoclonal anti-αsyn (BD Transduction Laboratories) and anti-β-actin (Chemicon). The blots were developed using chemiluminescence (PIERCE, Rockford, Ill.) and visualized with a Phosphoimager (BioRad, Hercules, Calif.). The bands were quantified using QuantityOne® software (BioRad).

APP and amyloid-beta [2] = assay type: cell-based; conditions: Table 2; printed in brackets as max; read-out: APP and amyloid-beta Inhibition (IC50), max
PrP 5′UTR = test: cells; conditions: Homo sapiens, SH-SY5Y, read-out: IC50 to reduce 5′UTR driven luciferase expression in pIRES-PrP-5′UTR transfectants
APP [3] = test: Western blot of APP levels in primary mouse cortical neurons
Experimental: Primary cortical neurons from wild type mice and from the PAC-Tg(SNCA(wt) human SNCA genomic mice [22] were cultured as outlined by the method of Ray et al., 2009 [23]. The embryonic (E15-18) pups were recovered after sacrificing pregnant females, separated out the brain, and removed the meninges and blood vessels. The cortices were then dissected out and placed them in separate Eppendorf tubes containing 500 uL of HBSS without Ca+^2/Mg^+2 salts supplemented with 1 mM sodium pyruvate and 10 mM HEPES, pH 7.4. On ice, individual cells were isolated by titrating 10 times using a glass pasture pipette with the tip barely fire polished. […]
(§3) After cells were exposed to increasing concentrations of the compounds as outlined in each figure legend, cytoplasmic protein lysates were prepared by homogenizing the cells in midRIPA buffer (25 mM Tris pH 7.4, 1% NP40, 0.5% sodium deoxycholate, 15 mM NaCl, protease inhibitors, RNase inhibitor and 10 μM DTT). Western blotting for APP was performed using the N-terminal 22C11 antibody (Millipore, Inc) and the A8717 C-terminal specific APP antibody (Sigma, inc), while αsyn was detected using mouse monoclonal anti-αsyn (BD Transduction Laboratories) and anti-β-actin (Chemicon). […] The bands were quantified using QuantityOne® software (BioRad).

α-synuclein (SNCA) = test: Western blot of α-synuclein levels in primary mouse neurons
Experimental: Primary cortical neurons from wild type mice and from the PAC-Tg(SNCA(wt) human SNCA genomic mice [22] were cultured as outlined by the method of Ray et al., 2009 [23]. The embryonic (E15-18) pups were recovered after sacrificing pregnant females, separated out the brain, and removed the meninges and blood vessels. The cortices were then dissected out and placed them in separate Eppendorf tubes containing 500 uL of HBSS without Ca+^2/Mg^+2 salts supplemented with 1 mM sodium pyruvate and 10 mM HEPES, pH 7.4. On ice, individual cells were isolated by titrating 10 times using a glass pasture pipette with the tip barely fire polished. The volume was adjusted to 1.5 mL, by adding 1 mL of HBSS with Ca^+2/Mg^+2 salts+Na. pyruvate+HEPES, restoring the divalent cations by adding HBSS so that the non-dispersed tissue could settle for 5 min, on ice. In the tissue culture laminar hood, the supernatant was transferred into a new 15 mL tube and centrifuged for 1 minute at 900 rpm, 4° C. The pellet was gently re-suspended in 2 mL of HBSS with Ca^+2/Mg^+2 salts+Na pyruvate+HEPES and took an aliquot for counting (2 mL for approx 5 embryos). The cells were then plated at ˜1×10^5 cells/well of a 24 well or 2×10^5/in 12 well plates. Each set of plates was coated with poly D-lysine containing poly L-lysine coverslips for micro immuncytochemical confirmation of neuronal integrity.
as §3

IRP1 binding to APP IRE = test: Biotinylated RNA pulldown assay, IRP1 binding to APP IRE probe; design: species or system human
Experimental: (§2) Biotinylated RNA oligonucleotides: […] Paramagnetic streptavidin-conjugated Dynabeads (Invitrogen) were washed with ribonucleoprotein immunoprecipitation buffer, added into lysates to bind IRP(1/2)-biotinylated-RNA complexes, and incubated for 1 hour at room temperature. After five washes, the proteins that bound to the beads were analyzed by Western blotting for IRP1, IRP2, and biotin. […] The IREs-bound IRPs were quantified by Quantity One® software (Bio-Rad).

[4] = system: IRP1 and IRP2 binding to H-ferritin IRE; test: Biotinylated RNA pulldown assay, IRP1/IRP2 binding to H-ferritin IRE probe; design: species or system human; conditions: same conditions as APP IRE pulldown
Experimental: as §2

TfR mRNA = assay type: cell-based, human; conditions: iron chelation, 25 μM, positive control
Experimental: as §1

APP and amyloid-beta [5] = conditions: Table 2; Refs 27, 33; read-out: APP and amyloid-beta Inhibition (IC50); cited from earlier work

With COc1cc(SC)ccc1C(=O)Nc1nc2ccccc2[nH]1 [BL-1] as the compound, how does the “concentration to inhibit APP 5′UTR conferred translation, times less than strophanthidin” value (APP 5′UTR; FIG. 8, relative to strophanthidin) read?
The value was 500 times.

For Cc1ccc2[nH]c(-c3ccc(N)cc3)nc2c1 [JTR-009, 4-(5-methyl-1H-benzimidazol-2yl) aniline], which “APP mRNA levels” value (APP mRNA; 0.1 nM to 10 μM drug, N=4) is on record?
The value was “unchanged”.

And the “increase of APP mRNA levels” value (APP mRNA; 100 μM)?
The value was ~10%.

And the “concentration that limits APP translation” value (APP [1])?
The value was “less than one”.

What about the “reduction of APP in lysate supernatants of RNA pulldown” value (APP [1]; 3 μM) of the same compound?
Its value is 35%.

And the “reduction of APP (densitometry, β-actin standardized)” value (APP [1]; 20 μM, 48 hour treatment)?
The value was 50%.

And the “reduction of APP in lysate supernatants of RNA pulldown” value (APP [1]; 30 μM)?
Its value is 70%.

What about the “APP levels, percent of control levels” value (APP [1]; 30 μM, 48 hours, N=5) of the same compound?
The value was 30%.

What about the IC50 (APP [1]; read-out: IC50 for translational inhibition of APP, dose-responsive assays) of the same compound?
Its IC50 is < 1 µM.

And the IC50 (APP and amyloid-beta [2])?
Its IC50 is 0.01 µM.

What about the IC50 (PrP 5′UTR) of the same compound?
The IC50 was 4 µM.

And the “reduction of APP 5′UTR activity” value (APP 5′UTR; 0.1 μM drug, N=4)?
Its value is “two-fold”.

And the IC50 (APP 5′UTR; Homo sapiens, SH-SY5Y, 384-plate assays, inhibition curves, first IC50 line of Table 1, read-out: IC50 to reduce 5′UTR driven luciferase expression in pIRES-APP-5′UTR transfectants)?
The IC50 was 0.4 µM.

What about the IC50 (APP 5′UTR; Homo sapiens, SH-SY5Y, FIG. 4A, dose response, N=4, read-out: IC50 to limit APP 5′UTR-luciferase expression) of the same compound?
Its IC50 is 0.1 µM.

What about the IC50 (APP 5′UTR; Homo sapiens, SH-SY5Y, Table 2, read-out: APP 5′UTR Inhibition (IC50)) of the same compound?
The IC50 was 0.1 µM.

And the IC50 (APP 5′UTR; Homo sapiens, SH-SY5Y, dose-responsive measurements, range, read-out: IC50 against the APP 5′UTR)?
The IC50 was 0.001 to 0.1 µM.

And the “fold more potent/effective than posiphen to limit APP 5′UTR driven translation” value (APP 5′UTR; relative to posiphen, listed as Formula I)?
Its value is “about 10 fold”.

And the “reduction of APP levels” value (APP [3]; concentrations as low as 10 nM, primary mouse cortical neurons)?
The value was 60%.

What about the “lowest dose that inhibited APP levels” value (APP [3]; primary mouse E-18 neurons) of the same compound?
The value was 1 nM.

What about the “average pair-wise reduction of SNCA levels (threshold)” value (α-synuclein (SNCA); 0.001 μM, 48 hours) of the same compound?
Its value is 50%.

And the “α-synuclein (SNCA) levels” value (α-synuclein (SNCA); primary mouse neurons, same treatment as APP reduction)?
Its value is “unchanged; also recorded: no significant changes”.

What about the “reduction of IRP1 binding to biotinylated APP IRE RNA probes” value (IRP1 binding to APP IRE; 0.3 μM, N=7) of the same compound?
The value was 20%.

And the “fold reduction of IRP1 binding to the APP IRE” value (IRP1 binding to APP IRE; 3 μM, 48 hour exposure)?
The value was 2 fold.

What about the “reduction of IRP1 binding to biotinylated APP IRE RNA probes” value (IRP1 binding to APP IRE; 3 μM, N=7) of the same compound?
The value was 50%.

What about the “IRP1 binding to biotinylated APP IRE RNA probes” value (IRP1 binding to APP IRE; 30 μM, N=7) of the same compound?
The value was “completely inhibited”.

And the “IRP1/IRP2 binding to H-ferritin IRE probes” value [4]?
The value was “always maintained; also recorded: no inhibitory change”.

What does the source list for CC(=O)N(O)CCCCCNC(=O)CCC(=O)N(O)CCCCCNC(=O)CCC(=O)N(O)CCCCCN [desferrioxamine, reference compound]?
APP mRNA levels (APP mRNA; iron chelation with desferrioxamine): unchanged; increase of transferrin receptor mRNA levels (TfR mRNA): 2 fold

Which “increase of APP 5′UTR activity” value (APP 5′UTR; 0.1 μM drug, matched conditions) does the source give for CN1CC[C@]2(C)c3cc(OC(=O)Nc4ccccc4)ccc3N(C)[C@H]12 [posiphen, reference compound] here?
Its value is 15%.

What about the IC50 (APP 5′UTR; FIG. 4A, dose response, N=4, read-out: IC50 to limit APP 5′UTR-luciferase expression) of the same compound?
Its IC50 is 5 µM.

And the IC50 (APP and amyloid-beta [5])?
Its IC50 is 1 µM.
